Measured values from patent US20210341448A1, “SCREENING METHOD FOR THERAPEUTIC DRUG OR PROPHYLACTIC DRUG FOR TAUOPATHY AND DIAGNOSTIC METHOD FOR TAUOPATHY” (National Center for Geriatrics and Gerontology, priority 2018, published 2021).

Key:
[1] = test system: postsynaptic NMDAR and AMPAR; experiment: Western blot of NMDA and AMPA receptor amounts on the synapse, brain slices of aging C57BL/6 mice; design: species or system mouse; details: aging C57BL/6 brain slice, 0.5% Triton X-100-insoluble membrane fraction
Protocol: As the molecule mechanism of NMDAR-LTD, it has been known that the AMPA receptors (hereinafter described as “AMPAR”) and/or the NMDA receptors (NMDAR) are incorporated into a cell by the endocytosis in the postsynaptic membrane caused by the activation of the NMDA receptors. Thus, an analysis was performed on the changes in amount of NMDARs and AMPARs on synapses in the brain slice specimens exposed to the tau oligomer sample and the brain slice specimens not exposed to the tau oligomer sample, prepared by the procedures of the above (2-1) and (2-2).
The brain slice specimens were frozen and disrupted in a 50-fold volume of homogenizing buffer (4 mM of HEPES, 2 mM of EGTA, 0.32 M of sucrose, pH 7.4) using a Teflon® homogenizer. The disrupted tissue solution was centrifuged at 4° C., 1,000×g for 15 minutes to thereby collect the supernatant, and the supernatant was further centrifuged at 4° C., 12,000×g for 15 minutes to thereby collect membrane fractions (pellets). The obtained membrane fractions were dissolved in tris-buffered saline containing 0.5% Triton X-100 (50 mM of Tris, 500 mM of NaCl, pH 7.4) and were centrifuged at 4° C., 20,000×g for 15 minutes. […] The western blot was carried out on the 0.5% Triton X-100-insoluble membrane fraction sample to quantify the AMPA receptor (GluA2 subunit) and the NMDA receptors (NR2a and NR2b subunits). […]

NMDAR = molecular target: T1, NMDAR (Homo sapiens, UniProt Q05586); experiment: Measurement of calcium influx through NMDAR into NT2-N cells; assay type: cell-based
T1 construct: endogenous in cells; host or cells: NT2-N neurons differentiated from NTERA-2 cl.D1 [NT2/D1] cells (ATCC CRL-1973)
Protocol: Cultured neurons expressing NMDARs retaining physiological functions were prepared by the following procedure to evaluate the NMDAR activation ability of the tau oligomer. The NTERA-2 cl.D1[NT2/D1] cells (ATCC CRL-1973) (hereinafter described as “NT2 cell”), which are derived from a human pluripotent embryonic cancer, were adhesively cultured on 10-cm plastic dish in maintenance culture medium (high glucose DMEM (Sigma-Aldrich, D6429), 10% FBS, 100 U/ml penicillin/streptomycin) under the conditions of 37° C. and 5% CO2 for 3 to 4 days until the confluency stage was attained. The NT2 cells were detached using Accutase (Innovative Cell Technologies, #AT104), were passaged, and were maintained over a period of 50 days. The medium was replaced 3 times a week.
The maintenance-cultured NT2 cells were dispersed in a low attachment petri dish (STAR SDish9015, RIKAKEN CO., LTD.) in a concentration of 1.5×10^6 to 2.5×10^6/dish, suspension-cultured under the conditions of 37° C. and 5% CO2 on a shaker (100 rpm), and 1 day later were induced to differentiate by adding 1 μM of all-trans-retinoic acid (abcam), to thereby form spheroids. 14 days later, the spheroids were collected, seeded in a 10-cm dish coated with 5 μg/ml of poly-D-lysin (PDL) (Sigma-Aldrich)/Laminin (LAM) (iMatrix-511, Nippi Inc.) and adhesively cultured under the conditions of 37° C. and 5% CO2. From the following day, the culture was carried out by adding 3 kinds of cell division inhibitors (10 μM of uridine, 10 μM of floxuridine, and 1 μM of AraC). […]
For analysis, 5 to 10 regions of the visual field of the NT2-N cells positioned in the system were manually set and the fluorescence intensities were recorded for each region, for Cal-520, every 1 minute for 1 hour continuously at excitation wavelength 480 nm/fluorescence emission wavelength 520 nm, and for Fluo-8, every 2 seconds for 5 minutes continuously at excitation wavelength 480 nm/fluorescence emission wavelength 520 nm. […]

Substance: tau oligomer: polymer of human tau 2N4R monomers, polymerized with mouse brain extract and ATP, collected as pellets
- amount of AMPARs on the postsynaptic site ([1]; GluA2, normalized to aCSF): reduced
- amount of NMDARs on the postsynaptic site ([1]; NR2a and NR2b, normalized to aCSF): reduced
- increase of intracellular calcium concentration (NMDAR activation ability) (NMDAR; Cal-520, NT2-N cells, 3 minutes after administration): has the NMDAR activation ability
- intracellular calcium concentration (NMDAR; Fluo-8, NT2-N cells, 100 μl of 0.03 μg/ml in HHBS): increased over time
